# Source: PubChem BioAssay (NCI)
#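 Method: 48-hour compound exposure of cells in 96-well plates, five concentrations, linear interpolation of endpoints. At the GI50, growth is halved. Definition used: TGI = concentration required for complete inhibition of growth.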
# Experiments:
# Experiment in all cases: growth of human tumour cells (NCI), 48 h
# 786-0 renal = test system: 786-0 renal
# A498 renal = test system: A498 renal
# A549 NSCLC = test system: A549 NSCLC
# ACHN renal = test system: ACHN renal
# BT-549 breast = test system: BT-549 breast
# CAKI-1 renal = test system: CAKI-1 renal
# CCRF-CEM leukemia = test system: CCRF-CEM leukemia
# COLO 205 colon = test system: COLO 205 colon
# DU-145 prostate = test system: DU-145 prostate
# EKVX NSCLC = test system: EKVX NSCLC
# HCC-2998 colon = test system: HCC-2998 colon
# HCT-116 colon = test system: HCT-116 colon
# HCT-15 colon = test system: HCT-15 colon
# HL-60(TB) leukemia = test system: HL-60(TB) leukemia
# HOP-62 NSCLC = test system: HOP-62 NSCLC
# HOP-92 NSCLC = test system: HOP-92 NSCLC
# HS 578T breast = test system: HS 578T breast
# HT29 colon = test system: HT29 colon
# IGROV1 ovarian = test system: IGROV1 ovarian
# K-562 leukemia = test system: K-562 leukemia
# KM12 colon = test system: KM12 colon
# LOX IMVI melanoma = test system: LOX IMVI melanoma
# M14 melanoma = test system: M14 melanoma
# MALME-3M melanoma = test system: MALME-3M melanoma
# MCF7 breast = test system: MCF7 breast
# MDA-MB-231 breast = test system: MDA-MB-231 breast
# MDA-MB-435 = test system: MDA-MB-435
# MOLT-4 leukemia = test system: MOLT-4 leukemia
# NCI-H226 lung = test system: NCI-H226 lung
smiles,measurement,setting,value
C=CC[PH+](c1ccccc1)c1ccccc1.C=CC[PH+](c1ccccc1)c1ccccc1.[Cl][Pt][Cl],GI50,786-0 renal,12.6 µM
same,TGI,786-0 renal,25.5 µM
same,GI50,A498 renal,16.5 µM
same,TGI,A498 renal,57.8 µM
same,GI50,A549 NSCLC,21.8 µM
same,TGI,A549 NSCLC,> 100 µM
same,GI50,ACHN renal,3.73 µM
same,TGI,ACHN renal,12.9 µM
same,GI50,BT-549 breast,17.1 µM
same,TGI,BT-549 breast,35.4 µM
same,GI50,CAKI-1 renal,10.6 µM
same,TGI,CAKI-1 renal,22.7 µM
same,GI50,CCRF-CEM leukemia,3.6 µM
same,TGI,CCRF-CEM leukemia,> 100 µM
same,GI50,COLO 205 colon,5.39 µM
same,TGI,COLO 205 colon,34.1 µM
same,GI50,DU-145 prostate,12.7 µM
same,TGI,DU-145 prostate,30.2 µM
same,GI50,EKVX NSCLC,13 µM
same,TGI,EKVX NSCLC,27.4 µM
same,GI50,HCC-2998 colon,15 µM
same,TGI,HCC-2998 colon,29.9 µM
same,GI50,HCT-116 colon,3.2 µM
same,TGI,HCT-116 colon,10.6 µM
same,GI50,HCT-15 colon,3.87 µM
same,TGI,HCT-15 colon,16.8 µM
same,GI50,HL-60(TB) leukemia,3.34 µM
same,TGI,HL-60(TB) leukemia,14 µM
same,GI50,HOP-62 NSCLC,18.5 µM
same,TGI,HOP-62 NSCLC,40.5 µM
same,GI50,HOP-92 NSCLC,3.27 µM
same,TGI,HOP-92 NSCLC,12.4 µM
same,GI50,HS 578T breast,13.4 µM
same,TGI,HS 578T breast,48.6 µM
same,GI50,HT29 colon,8.98 µM
same,TGI,HT29 colon,32.8 µM
same,GI50,IGROV1 ovarian,3.68 µM
same,TGI,IGROV1 ovarian,13.9 µM
same,GI50,K-562 leukemia,3.27 µM
same,TGI,K-562 leukemia,11.9 µM
same,GI50,KM12 colon,15.4 µM
same,TGI,KM12 colon,35.7 µM
same,GI50,LOX IMVI melanoma,2.1 µM
same,TGI,LOX IMVI melanoma,4.7 µM
same,GI50,M14 melanoma,6.35 µM
same,TGI,M14 melanoma,22.3 µM
same,GI50,MALME-3M melanoma,2.22 µM
same,TGI,MALME-3M melanoma,5.8 µM
same,GI50,MCF7 breast,5.62 µM
same,TGI,MCF7 breast,24.4 µM
same,GI50,MDA-MB-231 breast,3.23 µM
same,TGI,MDA-MB-231 breast,10.3 µM
same,GI50,MDA-MB-435,14.8 µM
same,TGI,MDA-MB-435,28.9 µM
same,GI50,MOLT-4 leukemia,3.11 µM
same,TGI,MOLT-4 leukemia,14 µM
same,GI50,NCI-H226 lung,16.1 µM
same,TGI,NCI-H226 lung,33 µM
